Measurements published in US20150044305A1, “[…] NITRIC OXIDE FOR TREATING RESPIRATORY DISEASES” (Advanced Inhalation Therapies (AIT) Ltd., priority 2012, published 2015).
Like-named read-outs stand apart in the source and are kept apart here.

Tests used:
methemoglobin = settings: healthy humans, cited from earlier work
[1] = test system: vascular endothelial activation factors Ang-1 and Ang-2; assay: Phase I safety study: plasma angiopoietin Ang-1 and Ang-2; type: in vivo, human; settings: vs baseline
Method: (§1) After obtaining informed consent, treatment was initiated within 5 days of enrollment. Subjects were housed in a hospital ward and received 160 ppm gNO for 30 minutes every four hours (Q4 h), five times a day, for five consecutive days by inhalation. Subjects returned for follow-up evaluations 3, 7 and 21 days after the final gNO administration. Subject safety was determined by monitoring vital signs, methemoglobin levels, lung function, blood chemistry, hematology, prothrombin time, inflammatory cytokine/chemokines levels and endothelial activation.
(§2) Hematological assessment included a complete blood count and differentials (hemoglobin, hematocrit, red blood cell count, white blood cell count, white blood cell differential, and platelet count) were obtained in order to monitor blood chemistry, hematology and inflammation measurements. The blood chemistry profile included serum creatinine, and liver function tests such as aspartate aminotransferase (AST) serum glutamic oxaloacetic transaminase (SGOT), alkaline phosphatase, and gamma-glutamyl transferase (GGT). The effect of gNO on coagulation was determined by the prothrombin time (PT) and its derived measures of prothrombin ratio (PR) and international normalized ratio (INR). Heparinized plasma was collected at baseline and on days 1, 2, 4, and 5 of gNO administration, and on follow-up days 3, 7 and 21 and frozen at −80° C. Plasma cytokine levels were assessed using the human inflammation cytokine bead array kit (BD Bioscience, Canada). Plasma levels of angiopoietin Ang-1 and Ang-2 were determined by ELISA (R&D Systems, USA).

Klebsiella sp.#3 = settings: 200 ppm gNO, saline suspension; cited from earlier work
[2] = cited from earlier work
Pseudomonas aeruginosa = settings: inhaled, intermittent 30 minute exposures, 160 ppm gNO; cited from earlier work
[3] = test system: all microorganisms tested; settings: 200 ppm gNO, cited from earlier work
[4] = Phase I safety study: inspiratory NO2 level during gNO administration; type: in vivo, human; settings: inspired gas, 160 ppm gNO
From the text: The levels of gNO, NO2, O2 and methemoglobin were monitored during the administration of gNO. The target gas mixture was 160 ppm gNO with a nitrogen dioxide (NO2) level of less than 5 ppm and an oxygen (O2) level ranging from 21% to 25%. Inspiratory NO, NO2 and O2 levels were continuously monitored by sampling from the mouthpiece sample port located about 6 millimeters from the mouth of the subject with an AeroNOx (Pulmonox, AB, Canada) NO, NO2 and O2 electrochemical analyzer. Delivery safety was determined by the number of occasions that NO2 exceeded 5 ppm, gNO exceeding 10% variation and O2 dropping below 20% during gNO administration. A commercially available noninvasive pulse oximeter (Rad 57, Masimo Corporation, USA) was used to measure saturation levels at the periphery of methemoglobin (SpMet).

[5] = Phase I open label safety study in healthy adults: adverse events and vital signs; type: in vivo, human
From the text: 10 healthy adult volunteer subjects (5 males, 5 females), aged 20 to 62 years, were enrolled in the study after screening their medical history, a physical examination, pulmonary function tests and blood values. Exclusion criteria included individuals less than 19 years of age, pregnant females and unwilling to practice birth control during the study, diagnosed with pulmonary disease, epistaxis, hemoptysis, methemoglobinemia, organ transplant recipient or receiving antibiotic therapy.
as §1
Subjects were administered gNO through a modified disposable mouthpiece to maximize mixing. Inspiration was spontaneously initiated by the subject from a conventional intermittent positive pressure breathing respirator (Mark-7, Carefusion, USA) in fixed flow mode delivering 48 liters per minute (LPM). Flows of gas were verified with a calibrated mass flow meter (TSI, USA). Gaseous nitric oxide (gNO, obtained at INOmax, Ikaria, USA) at a concentration of 800 ppm delivered at a flow of 12 LPM was titrated into a distal delivery port on the mouth piece connected to the respirator during inspiratory phase only (pressure switch). The Mark 7 respirator was supplied by an air/oxygen blender (Bird Sentry, Carefusion, USA) set to deliver 26% oxygen.
Cardiovascular status was determined by monitoring heart rate, blood pressure, respiratory rate and temperature. Values were recorded prior to the start of each gNO administration, following a 5 minute rest. During treatments, vital signs (except temperature) were also performed 15 minutes after the start of the treatment and at the end of gNO administration and recorded. After the first treatment each day, vital signs were recorded at every 30 minutes until the start of the second gNO administration of the day.

[6] = test system: five planktonic species of methicillin resistant S. aureous (MRSA); settings: exposure to 1,600 ppm hours of gNO; cited from earlier work
P. aeruginosa (ATCC) = settings: 200 ppm gNO, saline suspension; cited from earlier work
S. aureus (ATCC) = settings: 200 ppm gNO, saline suspension; cited from earlier work
S. aureus = settings: cited from earlier work
[7] = test system: highly pathogenic Avian Influenza H7N3; settings: cited from earlier work
[8] = Phase I safety study: serum nitrite/nitrate by Griess reagent; type: in vivo, human; settings: during the trial, 160 ppm gNO
Method: as §1
These parameters were measured continuously during every gNO administration course and for 3.5 hours after the first treatment of the day. Daily serum samples were collected and frozen at −80° C. and the serum […] level was measured using the Griess reagent.

inflammatory cytokines = assay: Phase I safety study: plasma cytokine levels by cytokine bead array; type: in vivo, human; settings: vs baseline
Method: as §1, §2

[9] = saline suspension, average over the bacteria of Table 1
[10] = levels of gNO greater than 120 ppm

[N]=O [gNO, nitric oxide]
MetHb level (methemoglobin; inhalation of gNO at 128 ppm for 3 hours): > 5% | MetHb level (methemoglobin; inhalation of gNO at 512 ppm for 55 minutes): > 5% | Ang-1 plasma level [1]: unaffected | Ang-2/Ang-1 ratio [1]: not affected | Ang-2 plasma level [1]: not affected | LD100 (Klebsiella sp.#3): 6 h | Latent Period (Klebsiella sp.#3): 3 h | −2.5 Log10 (hours) (Klebsiella sp.#3): 5.1 hours | mortality ([2]; 300 ppm gNO, groups of 10 rats, first 1-2 days): Six of the animals treated with 300 ppm gNO died | mortality ([2]; 400 ppm gNO, 6 continuous hours per day, rats): all of the animals died on the first day | mortality ([2]; 500 ppm gNO, 6 continuous hours per day, rats): all of the animals died on the first day | MetHb level ([2]; 500 ppm gNO, rats): 67 percents | pulmonary bioburden and leukocyte infiltration (Pseudomonas aeruginosa): effective to reduce the pulmonary bioburden and leukocyte infiltration | reduction in CFU/mL ([3]; every bacteria challenged): ≥ 3 log10 CFU/mL | LD100 (hours), Average [3, 9]: 4.77 h | Latent Period (hours), Average [3, 9]: 2.77 h | −2.5 Log10 (hours), Average [3, 9]: 3.82 hours | highest NO2 level recorded during the treatments [4]: 2.8 ppm | minor adverse events reported ([5]; 160 ppm gNO 30 minutes, five times a day, five days, 10 healthy adults): Three minor adverse events were reported | tolerability and adverse events ([5]; 160 ppm gNO 30 minutes, five times a day, five days, 10 healthy adults, 250 administrations): well tolerated and no significant adverse events were observed | vital signs ([5]; during and after 160 ppm gNO administration): remained within normal limits | blood pressure ([5]; during or after 160 ppm gNO administration): no drop in blood pressure | population of planktonic MRSA strains [6]: A reduction in the population of all five MRSA planktonic strains was observed | LD100 (P. aeruginosa (ATCC)): 3 h | Latent Period (P. aeruginosa (ATCC)): 1 h | −2.5 Log10 (hours) (P. aeruginosa (ATCC)): 2.1 hours | LD100 (S. aureus (ATCC)): 4 h | Latent Period (S. aureus (ATCC)): 3 h | −2.5 Log10 (hours) (S. aureus (ATCC)): 3.3 hours | reduction of colony formation (S. aureus; [10]): greater than 90% | time required to achieve greater than 90% reduction of colony formation (S. aureus; [10]): 8 to 12 h | survival (downward bactericidal trend) (S. aureus; solid media, increasing gNO concentration up to 160 ppm, vs medical air): 5-10% | viral replication and infectivity [7]: reduced not only viral replication but also their infectivity | serum nitrite/nitrate levels vs baseline [8]: no significant differences | cytokine level of IL-1b (inflammatory cytokines): unaffected | cytokine level of IL-6 (inflammatory cytokines): unaffected | cytokine level of IL-8 (inflammatory cytokines): unaffected | cytokine level of IL-10 (inflammatory cytokines): unaffected | cytokine level of IL-12p70 (inflammatory cytokines): unaffected | cytokine level of TNF (inflammatory cytokines): unaffected
